Results on one molecule are retold here after patent US11840708B2, “Isogenic blood-brain barrier model” (Wisconsin Alumni Research Foundation, priority 2016, dated 2023).

One series relates to iPSC-derived BMECs. As to the kind of experiment: Sodium fluorescein permeability across iPSC-derived BMEC monolayer on Transwell. It counts as in vitro ADME, human. Conditions: CS03iCTRn2-derived BMECs. As for the experimental part: (§1) Permeability Measurements—Sodium fluorescein (10 μM, 376 Daltons; Sigma) was utilized to determine the permeability of the iPSC-BMEC barrier. Following 48 h of monoculture or co-culture, fresh EC medium was added to the Transwell system, with EC medium containing sodium fluorescein added to the top chamber and EC medium lacking sodium fluorescein added to the bottom chamber. 150 uL aliquots were taken from the bottom chamber at 0, 15, 30, 45, and 60 min, and immediately replaced with pre-warmed EC medium. Permeability coefficients were calculated based on the cleared volume of fluorescein from the top chamber to the bottom chamber.

Assay in series [1]: as above
It counts as in vitro ADME, human. Conditions: human, 48 h. The procedure:
as §1

Read-outs that look alike come from different tables or passages of the source.

On to `O=C1OC2(c3ccc(O)cc3Oc3cc(O)ccc32)c2ccccc21` [sodium fluorescein, Sodium fluorescein], for which the “decrease of fluorescein permeability, isogenic co-culture compared to monoculture” value with iPSC-derived BMECs is 13 fold. In addition, the Papp at 60 min, 10 μM in series [1] (IMR90-4 iPSC-derived BMECs co-cultured with EZ-sphere-derived neurons and astrocytes (1:3), read-out: sodium fluorescein permeability Pe) is 0.12 ± 0.001 ×10⁻⁶ cm/s; in series [1] (IMR90-4 iPSC-derived BMECs co-cultured with NPC-derived astrocytes and neurons, read-out: sodium fluorescein permeability Pe) it was 0.2 ± 0.1 ×10⁻⁶ cm/s; in series [1] (IMR90-4 iPSC-derived BMECs co-cultured with primary rat astrocytes, read-out: sodium fluorescein permeability Pe), 0.19 ± 0.01 ×10⁻⁶ cm/s; in series [1] (isogenic co-culture: CS03iCTRn2-derived BMECs with neurons:astrocytes (1:3), read-out: fluorescein permeability Pe), 0.062 ± 0.011 ×10⁻⁶ cm/s; in series [1] (monocultured CS03iCTRn2-derived BMECs, read-out: fluorescein permeability Pe), 0.81 ± 0.09 ×10⁻⁶ cm/s; in series [1] (monocultured IMR90-4 iPSC-derived BMECs, read-out: sodium fluorescein permeability Pe) it was 0.48 ± 0.03 ×10⁻⁶ cm/s.
